From patent publication US7745589B1, “Antibodies and unnatural substrates of prenylation enzymes for use in detecting and isolating prenylated proteins” (University of Kentucky Research Foundation, priority 2005, dated 2010)

Tests used:
[1] = tested on: anti-NAG antibodies; assay: Western analysis of H-Ras modified by FTase with aniline analogs, probed with Anti-NAG; assay type: binding, rabbits; conditions: H-Ras reacted with analog by FTase, FIG. 11B
[2] = molecular target: T1, FTase (Homo sapiens, UniProt P49354+P49356); conditions: in vitro; cited from earlier work
[3] = molecular target: T1, FTase; assay: FTase catalyzed in vitro modification of RDJ2 and H-Ras; assay type: biochemical; conditions: bacterially expressed proteins, intact Ca1a2X motifs
Procedure: 2 μg of recombinant bacterially expressed RDJ2 is incubated with 20 μM AGPP or FPP and 5 μg FTase in 50 μL of TrisHCl buffer (pH=7.4). […] The reactions are incubated for 30 min at 37° C., boiled with SDS and PAGE performed using the protein concentrations indicated on the blots.

[4] = molecular target: GGTaseI (Homo sapiens, UniProt P49354+P53609); assay: GGTaseI continuous spectrofluorometric assay with dansylated-GCaaX peptides; assay type: biochemical; conditions: for Substrate for GGTaseI with CVIL peptide: dansylated-GCVIL peptide; for Substrate for GGTaseI with CVIM peptide: dansylated-GCVIM peptide; for Substrate for GGTaseI: peptide not specified
Procedure: The kinetic constants Km^peptide and kcat with GGPP, and the analogs with each peptide are determined in triplicate measurements using a continuous spectrofluorometric assay adapted for a 96-well plate. The following assay components are assembled in individual wells of a 96-well plate and incubated at 30° C. for 20 minutes: 180 μL of assay butler (52 mM Tris-HCl, 12 mM MgCl2, 12 μM ZnCl2 pH 7.4), 40 μL of detergent (0.125% n-dodecyl-β-D-maltoside in assay buffer), 40 μL of reducing agent (50 mM DTT in assay buffer) 20 μL of GGPP or analog (200 μM in 25 mM NH4HCO3) and 20 μL of N-dansyl-GCaaX peptide (variable concentration). Fluorescence is detected using a time based scan at 30° C. for 120 minutes. The velocity of each reaction is determined by converting the rate of increase in fluorescence intensity units (FLU/s) to μM/s with equation 1. vi=(R·P)/(FMAX−FMIN) Equation 1
Where vi is the velocity of the reaction in μM/s. R is the rate of the reaction in FLU/s. P is equal to the concentration of modified product in μM (see below). FMAX is the fluorescence intensity of fully modified product. FMIN is the fluorescence of a reaction mixture that contained 20 μL of assay buffer in the place of GGTaseI. Complete modification of peptides is assumed when fluorescence stabilized for more than 10 minutes and is confirmed by RP-HPLC analysis of the reaction mixture.
Final analysis peptide concentrations are chosen based on preliminary determination of the Km^peptide with 0.5, 1, 5 and 10 μM dansyl-GCaaX concentrations (see below). The final analysis used 8 peptide concentrations which are: ⅙, ⅕, ¼, ½, ¾, 1, 2, and 3 times the estimated Km^peptide. The reaction is then initiated by the addition of 20 μL of GGTaseI (final 10 nM). Fluorescence enhancement is determined as described above.
Complete modification of peptides is assumed when fluorescence stabilized for more than 10 minutes and is confirmed by RP-HPLC analysis of the reaction mixture. […] Alternatively the extent of input peptide modified is determined by RP-HPLC analysis of the dansyl moiety peak absorbance corresponding to the unmodified and modified peptides. The percent of modified peptide relative to the total input peptide is used to calculate the concentration of product in the mixture.
The velocities of the reactions are plotted against the concentration of peptide and are fit to the Michaelis-Menten equation (Equation 2) to give the apparent kcat (appkcat) and Km^peptide (appKmpeptide) values. Where et is the total enzyme concentration and [Pep] is the total input peptide. The kcat/Km^peptide value is derived from a Lineweaver-Burke plot of the same data points. vi/et=(appkcat*[Pep])/(appKm^peptide+[Pep]) Equation 2

[5] = tested on: anti-AG antibody; assay: Western analysis of H-Ras modified by FTase with aniline analogs, probed with Anti-AG; assay type: binding, rabbits; conditions: H-Ras reacted with analog by FTase, FIG. 11A
Procedure: (§1) Cells are harvested by scraping into 300 μl phosphate buffered saline containing protease inhibitor cocktail set 1 (calbiochem), followed by sonication on ice. Protein concentration is determined using a Bradford reagent kit (Pierce). The proteins from the FTase reaction mixtures or cell lysates are then separated using 12% SDS-polyacrylamide gels followed by transfer to nitrocellulose membranes. The membranes are incubated in blocking buffer PCT (see ELISA) for one hour at room temperature, after which the following steps are used: incubation with Anti-AG 1:1000 to 1:10,000 in PCT for one hour; 3×15 minute washes with vigorous shaking in PT buffer (see ELISA); incubation at room temperature one hour with goat anti-rabbit horseradish peroxidase-conjugated secondary antibody (Zymed) at a dilution of 1:20,000 in PCT buffer; and four 15 minute washes with PT buffer. The membranes are then subjected to enhanced chemiluminescence detection by incubation in 20 mL of detection buffer (Pierce Super Signal) for one minute.

[6] = tested on: HEK-293 cells; assay: AGOH labeling and FTI inhibition of label in HEK-293 cells; assay type: cell-based, human
Procedure: Plates are coated with poly-L-Lysine and seeded with HEK-cells in Dulbecco's modified Eagle's medium with 5% fetal bovine serum. Cells are incubated in medium containing 30 μM lovostatin and 10 μM GGOH for 24 hrs. The media is poured off then replenished with media without lovostatin and GGOH and are treated with 3 μM FTI-277 (calbiochem), 20 μM GGTI-2147 (calbiochem) or no inhibitor and incubated at 37° C. for 1 hour. DMSO as a vehicle, or 100 μM AGOH is then added and incubated at 37° C. for two hours. Medium is then removed and cells are extracted into 300 μL PBS containing Protease Inhibitor cocktail set 1 (Calbiochem). The samples are sonicated and centrifuged for 5 minutes. The supernatant is removed and used for western blotting.
Cells are harvested by scraping into 300 μl phosphate buffered saline containing protease inhibitor cocktail set 1 (calbiochem), followed by sonication on ice. Protein concentration is determined using a Bradford reagent kit (Pierce). The proteins from the FTase reaction mixtures or cell lysates are then separated using 12% SDS-polyacrylamide gels followed by transfer to nitrocellulose membranes. […]

[7] = tested on: human embryonic kidney (HEK-293) cells; assay: Acute cytoxicity of anilinogeraniol in HEK-293 cells; assay type: cell-based; conditions: up to 100 μM, three days, relative to controls
Excerpt: Farnesol, geranylgeraniol and a number of farnesol analogues become incorporated into cellular proteins when added to the culture media of growing cells. See e.g., Crick, et al. (1995) Biochem Biophys Res Commun 211, 590-9; Crick, et al. (1997) Biochem Biophys Res Commun 237, 483-7. These compounds are thought to traverse the plasma membrane and act as a substrate for sequential kinase reactions to give FPP, GGPP or the diphosphate analogue which can be then be utilized by FTase or GGTaseI to appropriately modify cellular proteins. Thai, et al. (1999) Proc Natl Acad Sci U S A 96, 13080-5. The kinases involved in the phosphorylation reactions have been characterized in plants, but not in mammalian cells. […] See Chehade, et al. (2000) J. Org. Chem. 65, […]. It is thought that nilinogeraniol might also cross the plasma membrane of cells, be converted to the diphosphate and become incorporated into proteins by FTase. However, it is also possible that anilinogeraniol might be toxic to mammalian cells. Accordingly, the acute cytoxicity of anilinogeraniol is examined by incubating human embryonic kidney (HEK-293) cells with up to 100 μM anilinogeraniol for three days.

[8] = tested on: HEK-cells; assay: AGOH incorporation into unblocked cells; assay type: cell-based, human; conditions: 30 μM AGOH, no lovastatin blockade
Procedure: Plates are coated with poly-L-Lysine and seeded with HEK-cells in Dulbecco's modified Eagle's medium with 5% fetal bovine serum. The cells ware then treated with DMSO as a vehicle, or 30 μM AGOH 5a is then added and incubated at 37° C. for the indicated time points. Medium is then removed and cells are extracted into 300 μL PBS containing Protease Inhibitor cocktail set 1 (Calbiochem). The samples are sonicated and centrifuged for 5 minutes. The supernatant is removed and used for western blotting.
as §1, with “The membranes are then subjected to enhanced chemiluminescence detection by incubation in 20 mL of detection buffer (Pierce Super Signal) for one minute.” left out

[9] = tested on: GGTaseI; assay: GGTaseI protein substrate modification of H-Ras; assay type: biochemical; conditions: relatively large amount of GGTaseI, Western blot FIG. 17A
[10] = tested on: H460 (lung cancer cell line) and MCF7 (breast cancer cell line) cells; assay: Cell labeling with AFOH; assay type: cell-based; conditions: 30 μM AFOH overnight, FIG. 17B
Procedure: Plates are coated with poly-L-Lysine and seeded with in Dulbecco's modified Eagle's medium with 5% fetal bovine serum. The cells are then treated with DMSO as a vehicle, or 30 μM AFOH is added and incubated at 37° C. overnight. Medium is then removed and cells are extracted into 500 μL of RIPA buffer containing Protease Inhibitor cocktail I (calbiochem). The supernatant is removed and used for western blotting.
Protein concentration is determined using a Bradford reagent kit (Pierce) with 1:100 dilutions of the cell lysates. The proteins from the GGTaseI reaction mixtures or cell lysates are then separated using 12% SDS-polyacrylamide gels followed by transfer to nitrocellulose membranes. The membranes are incubated in blocking buffer PBS Casein and Tween buffer for one hour at room temperature, after which the following sequential steps are used: incubation with anti-AG or anti-NAG to 1:10,000 in PCT for one hour; 3×15 minute washes with vigorous shaking in PBS Tween buffer; incubation at room temperature one hour with goat anti-rabbit horseradish peroxidase-conjugated secondary antibody (Zymed) at a dilution of 1:20,000 in PCT buffer; and four 15 minute washes with PT buffer. The membranes are then subjected to enhanced chemiluminescene detection by incubation in 20 mL of detection buffer (Pierce Super Signal) for one minute.

Compound: para-cyano-anilinogeranyl diphosphate [pCN-AGPP]
- Recognition of analog-modified H-Ras by anti-NAG antibodies [1]: recognized

Compound: C/C(=C\COP(=O)(O)OP(=O)(O)O)CC/C=C(\C)CNc1ccccc1 [AGPP, anilinogeranyl diphosphate]
- Transferable by FTase to a CVLS substrate [2]: transferable
- FTase catalyzed in vitro modification of RDJ2 and Q61L H-Ras [3]: provided lipid thioether-linked proteins

Compound: CC(C)=CCC/C(C)=C/CC/C(C)=C/CC/C(C)=C/COP(=O)(O)OP(=O)(O)O [GGPP, geranylgeranyl diphosphate, reference compound]
- Substrate for GGTaseI with CVIL peptide [4]: confirmed to be a substrate
- Substrate for GGTaseI with CVIM peptide [4]: confirmed to be a substrate

Compound: para-methyl-anilinogeranyl diphosphate [pMe-AGPP]
- Recognition of analog-modified H-Ras by anti-AG antibody [5]: able to cross-react

Compound: C/C(=C\COP(=O)(O)OP(=O)(O)O)CC/C=C(\C)CNc1ccc([N+](=O)[O-])cc1 [NAGPP, para-nitro-anilinogeranyl diphosphate]
- FTase catalyzed in vitro modification of RDJ2 and Q61L H-Ras [3]: provided lipid thioether-linked proteins

Compound: meta-fluoro-anilinogeranyl diphosphate [mF-AGPP]
- Recognition of analog-modified H-Ras by anti-AG antibody [5]: able to cross-react

Compound: meta-cyano-anilinogeranyl diphosphate [mCN-AGPP]
- Recognition of analog-modified H-Ras by anti-NAG antibodies [1]: recognized
- Recognition of analog-modified H-Ras by anti-AG antibody [5]: able to cross-react

Compound: C/C(=C\CO)CC/C=C(\C)CNc1ccccc1 [AGOH, Anilinogeranyl alcohol]
- Anilinogeranyl modified proteins detected with Anti-AG in cell extracts ([6]; cells blocked with lovostatin and treated with GGOH, 100 μM AGOH, FIG. 12): numerous anilinogeranyl modified proteins
- Cell growth [7]: no decrease in cell growth
- Morphological changes [7]: no morphological changes
- Competition with endogenous pools of FPP [8]: competitive with the endogenous pools of FPP
- Onset of anilinogeranyl incorporation into proteins ([8]; FIG. 14): within two hours

Compound: anilinofarnesyl diphosphate [AFPP]
- Incorporation of analog into H-Ras in vitro [9]: incorporated into the protein
- Substrate for GGTaseI [4]: both substrates

Compound: para-bromo-anilinogeranyl diphosphate [pBr-AGPP]
- Recognition of analog-modified H-Ras by anti-NAG antibodies [1]: recognized
- Recognition of analog-modified H-Ras by anti-AG antibody [5]: able to cross-react

Compound: ortho-fluoro-anilinogeranyl diphosphate [oF-AGPP]
- Recognition of analog-modified H-Ras by anti-AG antibody [5]: able to cross-react

Compound: COC(=O)[C@H](CCSC)NC(=O)c1ccc(NC[C@@H](N)CS)cc1-c1ccccc1 [FTI-277, reference compound]
- Effect of inhibitor on anilinogeranyl modification of cellular proteins ([6]; cells incubated with AGOH, 3 μM FTI-277 or 20 μM GGTI-2147): no anilinogeranyl modified proteins are detected

Compound: CC(=CCO)CCC=C(C)CCC=C(C)CNc1ccccc1 [AFOH, Anilinofarnesiol]
- AFOH incorporation into cellular proteins [10]: does appear to be incorporated into proteins

Compound: CC(=CCC/C(C)=C/COP(=O)(O)OP(=O)(O)O)CNc1ccc(F)cc1 [pF-AGPP, para-fluoro-anilinogeraniol diphosphate]
- Recognition of analog-modified H-Ras by anti-AG antibody [5]: able to cross-react

Compound: meta-methyl-anilinogeranyl diphosphate [mMe-AGPP]
- Recognition of analog-modified H-Ras by anti-AG antibody [5]: able to cross-react

Compound: meta-bromo-anilinogeranyl diphosphate [mBr-AGPP]
- Recognition of analog-modified H-Ras by anti-AG antibody [5]: able to cross-react

Compound: CC(=CCCC(C)=CCOP(=O)(O)OP(=O)(O)O)CCC=C(C)CNc1ccc([N+](=O)[O-])cc1 [NAFPP, pNO2-anilinofarnesyl diphosphate]
- Incorporation of analog into H-Ras in vitro [9]: incorporated into the protein
- Substrate for GGTaseI with CVIL peptide [4]: are substrates when CVIL is the target
- Substrate for GGTaseI with CVIM peptide [4]: none of the AGPP analogs or NAFPP are substrates
- Substrate for GGTaseI [4]: both substrates
